Data published in ChEMBL document CHEMBL6134860, “Discovery and optimization of a novel carboxamide scaffold with selective antimalarial activity” (Eur J Med Chem, 2025).
pEC50: −log10 of the molar value. In brackets after ≈: the same amount, converted by molar mass.

Key:
Plasmodium falciparum [1] = assay: microbe, parasite or virus in culture; format: functional, organism-based; conditions: W2, 72 h; for EC50: read-out: pEC50 (converted); for pEC50: read-out: EC50
[2] = Cytotoxicity against human HepG2 cells measured after 72 hrs by hoechst 33342 staining based imaging assay; format: toxicity, cell-based
[3] = Lipophilicity, logD of compound at pH 7.4; conditions: buffer
[4] = Metabolic stability in human liver microsomes assessed as half life
[5] = Metabolic stability in human liver microsomes assessed as apparent intrinsic clearance
[6] = Metabolic stability in rat hepatocytes assessed as half life
[7] = Metabolic stability in rat hepatocytes assessed as apparent intrinsic clearance measured per 10^6 cells
Plasmodium falciparum [8] = assay: microbe, parasite or virus in culture; format: functional, organism-based; conditions: C2B, 72 h; for pEC50: read-out: EC50; for EC50: read-out: pEC50 (converted)
Plasmodium falciparum [9] = assay: microbe, parasite or virus in culture; format: functional, organism-based; conditions: C235, 72 h; for pEC50: read-out: EC50; for EC50: read-out: pEC50 (converted)
Plasmodium falciparum [10] = assay: microbe, parasite or virus in culture; format: functional, organism-based; conditions: D6, 72 h; for pEC50: read-out: EC50; for EC50: read-out: pEC50 (converted)
Plasmodium falciparum [11] = assay: microbe, parasite or virus in culture; format: functional, organism-based; conditions: 3D7, 72 h; for pEC50: read-out: EC50; for EC50: read-out: pEC50 (converted)
[12] = Aqueous solubility of compound at pH 7.4; conditions: buffer
Plasmodium falciparum [13] = assay: Antiplasmodial activity against Plasmodium falciparum strain NF54 assessed as 99% parasite clearance time in presence of 2% haematocrit and 0.5 % parasitemia at 10 times EC50 followed by media with compound exchanged daily measured after 2 weeks by standard hypoxanthine assay; format: functional

| SMILES | EC50 (Plasmodium falciparum [1]) [nM] | CC50 at 72 h ([2]; read-out: CC50) [nM] | CC50 at 72 h ([2]; read-out: pCC50 (converted)) [nM] | other results |
| --- | --- | --- | --- | --- |
| Cc1ccc(N(C)C(=O)c2ncn(-c3ccc(C(C)C)cc3)n2)cc1 | 741 | > 10000 | > 10000 | – |
| COc1ccc(N(C)C(=O)c2ncn(-c3ccc(C(C)C)cc3)n2)cc1 | 1620 | > 10000 | > 10000 | – |
| Cc1ccc(-c2ccnc(C(=O)N(C)c3ccc(Cl)cc3)c2)cc1 | 490 | > 10000 | > 10000 | – |
| Cc1ccc(-c2cnc(C(=O)N(C)c3ccc(Cl)cc3)o2)cc1 | 676 | > 10000 | > 10000 | – |
| CC(C)c1ccc(-n2cnc(C(=O)N(C)c3ccc(Cl)cc3)n2)cc1 | 851 | > 10000 | > 10000 | – |
| CCc1ccc(-n2cnc(C(=O)N(C)c3ccc(OC)cc3)n2)cc1 | 933 | > 10000 | > 10000 | – |
| CCc1ccc(-n2cnc(C(=O)N(C)c3ccc(C)c(C)c3)n2)cc1 | 2000 | > 10000 | > 10000 | – |
| Cc1ccc(-c2cncc(C(=O)N(C)c3ccc(Cl)cc3)c2)cc1 | – | > 10000 | > 10000 | logD [3]: 4.32; half-life [4]: 6.1 min; microsomal CLint [5]: 228 µL/min/mg; half-life [6]: < 7.5 min; CLH(app) [7]: > 92.4 µL/min |
| O=C(Nc1ncn(-c2ccc(Cl)cc2)n1)c1ccc(Cl)cc1 | 3090 | > 10000 | > 10000 | – |
| Cc1ccc(C(=O)N(C)c2ncn(-c3ccc(Cl)cc3)n2)cc1 | 4270 | > 10000 | > 10000 | – |
| Cc1ccc(C(=O)Nc2ncn(-c3ccc(C)cc3)n2)cc1 | 2510 | > 10000 | > 10000 | – |
| CCc1ccc(-n2cnc(C(=O)N(C)c3ccc(Cl)cc3)n2)cc1 | 617 | > 10000 | > 10000 | – |
| CCc1ccc(-n2cnc(C(=O)N(C)c3ccc(C)cc3)n2)cc1 | 575 | > 10000 | > 10000 | – |
| COc1ccc(-n2cnc(C(=O)N(C)c3ccc(C)cc3)n2)cc1 | 5750 | > 10000 | > 10000 | – |
| Cc1ccc(-c2ncc(C(=O)N(C)c3ccc(Cl)cc3)[nH]2)cc1 | 3390 | > 10000 | > 10000 | – |
| CN(C(=O)c1ncc(-c2ccc(Cl)cc2)o1)c1ccc(Cl)cc1 | 170 | – | – | pEC50 (Plasmodium falciparum [1]): 6.77; pEC50 (Plasmodium falciparum [8]): 6.77; EC50 (Plasmodium falciparum [8]): 166 nM; pEC50 (Plasmodium falciparum [9]): 6.55; EC50 (Plasmodium falciparum [9]): 282 nM; pEC50 (Plasmodium falciparum [10]): 6.08; EC50 (Plasmodium falciparum [10]): 832 nM; pEC50 (Plasmodium falciparum [11]): 6.30; EC50 (Plasmodium falciparum [11]): 501 nM |
| Cc1ccc(N(C)C(=O)c2ncn(-c3ccc(C)cc3)n2)cc1 | 1740 | > 10000 | > 10000 | logD [3]: 3.15; half-life [4]: 11.1 min; microsomal CLint [5]: 125 µL/min/mg; half-life [6]: < 7.5 min; CLH(app) [7]: > 92.4 µL/min |
| [2H]C([2H])([2H])N(C(=O)c1cc(-c2ccc(Cl)cc2)ccn1)c1ccc(Cl)cc1 | 200 | – | – | pEC50 (Plasmodium falciparum [1]): 3.70; pEC50 (Plasmodium falciparum [8]): 6.98; EC50 (Plasmodium falciparum [8]): 105 nM; pEC50 (Plasmodium falciparum [9]): 6.70; EC50 (Plasmodium falciparum [9]): 200 nM; pEC50 (Plasmodium falciparum [10]): 6.22; EC50 (Plasmodium falciparum [10]): 603 nM; pEC50 (Plasmodium falciparum [11]): 6.23; EC50 (Plasmodium falciparum [11]): 589 nM |
| Cc1ccc(N(C)C(=O)c2ncn(-c3ccc(Cl)cc3)n2)cc1 | 562 | > 10000 | > 10000 | solubility [12]: 4.4 µM (≈ 1.44 µg/mL); logD [3]: 3.36; half-life [4]: 33.8 min; microsomal CLint [5]: 41.1 µL/min/mg; half-life [6]: < 7.5 min; CLH(app) [7]: > 92.4 µL/min |
| C[C@H]1[C@@H](O)O[C@@H]2O[C@@]3(C)CC[C@H]4[C@H](C)CC[C@@H]1[C@@]24OO3 [ARTENIMOL] | 0.417 | – | – | EC50 (Plasmodium falciparum [8]): 0.178 nM; EC50 (Plasmodium falciparum [9]): 2.95 nM; EC50 (Plasmodium falciparum [10]): 1.55 nM; EC50 (Plasmodium falciparum [11]): 0.661 nM |
| O=C1C(O)=C([C@H]2CC[C@H](c3ccc(Cl)cc3)CC2)C(=O)c2ccccc21 [ATOVAQUONE] | 0.759 | – | – | EC50 (Plasmodium falciparum [8]): < 1000 nM; EC50 (Plasmodium falciparum [9]): 1.95 nM; EC50 (Plasmodium falciparum [10]): 0.603 nM; EC50 (Plasmodium falciparum [11]): 0.851 nM |
| COc1ccc(C[C@H](N)C(=O)N[C@H]2[C@@H](O)[C@H](n3cnc4c(N(C)C)ncnc43)O[C@@H]2CO)cc1 [PUROMYCIN] | 63.1 | – | 646 | – |
| CCc1nc(N)nc(N)c1-c1ccc(Cl)cc1 [PYRIMETHAMINE] | – | – | – | Time (Plasmodium falciparum [13]): 25.9 h |
